System: MPNST complex spheroid with HUVEC/MSC, growth, % test/control
Assay: Anticancer human tumor MPNST cell line growth inhibition [Asc];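 further: compounds left on spheroids for seven days before reading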
Conditions: for IC50: curve of first compound; for viability, T/C: stronger effect = lower value; active means viability on the fitted dose curve at most 10% of control; inactive means the rest
Description: Multicellular complex tumor spheroid response to apoptosis pathway targeting inhibitors Alrizomadlin, Pelcitoclax, and Dasminapant in combination with a variety of drugs and investigational agents in selected tumor cell lines
The MDM2 inhibitor alrizomadlin, the Bcl-2/Bcl-xL inhibitor pelcitoclax, and the IAPs inhibitor dasminapant were evaluated both individually and in combination with standard of care and investigational anticancer small molecules within a complex spheroid model of solid tumors. . Complex spheroids include a stromal component modeled by human endothelial cells (HUVEC) and fibroblasts modeled by human mesenchymal stem cells (MSCs). The concentration ranges selected for each drug and investigational agent were based upon clinically achievable concentrations if the clinical Cmax of the agent was known.
Compounds. The drugs and investigational agents: alrizomadlin (APG-115; NSC831270), pelcitoclax (APG-1252; NSC835773), dasminapant (APG-1387;NSC834197), TAK-243 (NSC785004), copanlisib (NSC809693), olaparib (NSC753686), talazoparib (NSC767125), cobimetinib (NSC 768068), eltanexor (KPT-8602, NSC 794443), abemaciclib (NSC 768073), sotorasib (NSC818433), adagrasib (NSC 831453), MRTX-1133 (NSC 836407), Iadademestat (ORY1001, NSC 806812), and RMC-4630 (NSC839698), were obtained from the NCI Developmental Therapeutics Program Chemical Repository. The FDA-approved anticancer drug set is available from the Developmental Therapeutics Program at https://dtp.cancer.gov/organization/dscb/obtaining/available plates.htm. […] The stock solutions were prepared in dimethyl sulfoxide (DMSO, Sigma-Aldrich, St. Louis, MO, cat. D2650) at 800-fold the tested concentration and stored at -70 degrees C prior to their use. All drugs and investigational agents were tested over a range starting from a high concentration at or near the clinical Cmax and decreasing in half-log increments. If the clinical Cmax for an agent had not been determined, the highest concentration tested was 10 microM.
The patient-derived cancer (PDC) cell lines include five colon adenocarcinomas: 186277-243-T-J2-PDC, 616215-338-R-J1-PDC, 439559-082-T-J2-PDC, 463943-066-T-J2-PDC, and 519858-162-T-J1-PDC; three pancreatic carcinomas: 323965-272-R-J2-PDC, 521955-158-R6-J3-PDC, and 521955-158-R2-J5-PDC; two uterine sarcomas: 327498-152-R-J2-PDC and 993429-296-R-J1-PDC; two rhabdomyosarcomas: 755483-174-R-J1-PDC and 772245-204-R-J1-PDC; two soft tissue sarcomas: 126254-015-R-J1-PDC and 494315-158-R-J1-PDC; two malignant fibrous histiocytomas: 317291-083-R-J1-PDC and 596521-263-R-J1-PDC; two breast carcinomas: 171881-019-R-J1-PDC and 885512-296-R-J2-PDC; and one ovarian carcinoma: 6556581-035-R-J-PDC were obtained from the NCI PDMR, (https://pdmr.cancer.gov). The established cell lines HSSY-2 synovial sarcoma (RRID:CVCL 8719), SYO-1 synovial sarcoma (RRID:CVCL_7146), MPNST malignant peripheral neural sheath tumor were obtained from the Sloan Kettering Institute. The following established cell lines were purchased from the American Type Culture Collection (ATCC, Manassas, VA), Sor the received from the NCI repository:, PANC-1 pancreatic carcinoma (CRL-1469, RRID:CVCL_0480), OVCAR-5 ovarian carcinoma (RRID:CVCL_1628), OVCAR-8 ovarian carcinoma (RRID:CVCL_1629), , MCF-7 breast carcinoma (CRL-12584, RRID:CVCL_0031), MDA-MB-231 breast carcinoma (CRL-12532, RRID:CVCL_0062), NCI-H1876 small cell lung carcinoma (CRL-5902, RRID:CVCL_1503), NCI-H510A small cell lung carcinoma (HTB-184, RRID:CVCL_1565), NCI-H1417 (CRL-5869, RRID:CVCL_1469), and NCI-H196 small cell lung carcinoma (CRL-5823, RRID:CVCL_1509). Dr. Peter Houghton (Greehey Children's Cancer Research Institute, University of Texas Health Science Center, San Antonio, TX) provided Rh-18 rhabdomyosarcoma (RRID:CVCL_1659). Pooled donor human umbilical vein endothelial cells (HUVEC, Lonza, cat. CC-2519) and human mesenchymal stem cells (hMSC, Lonza, cat. PT-2501) were purchased from Lonza (Walkersville, MD).
Cell Culture. […]

NC1CCC(NC2CC2c2ccccc2)CC1 (stereo not given) + Cc1c(S(C)(=O)=O)c(-c2cc(F)cc(N3CCN(c4ccc(NS(=O)(=O)c5ccc(NC(CCN6CCC(C(=O)OCCCP(=O)(O)O)CC6)CSc6ccccc6)c(S(=O)(=O)C(F)(F)F)c5)cc4)CC3)c2)c(-c2ccc(Cl)cc2)n1C(C)C
> 100 nM: IC50 (second compound 0.1 µM) | IC50 (second compound 0.316 µM) | IC50 (second compound 1 µM) | IC50 (second compound 3.16 µM) | IC50 (second compound 10 µM)
inactive: viability, T/C (second compound 0.1 µM, first compound 0.000316 µM) 67.4% | viability, T/C (second compound 0.1 µM, first compound 0.001 µM) 71.3% | viability, T/C (second compound 0.1 µM, first compound 0.00316 µM) 63.5% | viability, T/C (second compound 0.1 µM, first compound 0.01 µM) 75% | viability, T/C (second compound 0.1 µM, first compound 0.0316 µM) 72.4% | viability, T/C (second compound 0.1 µM, first compound 0.1 µM) 64.2% | viability, T/C (second compound 0.316 µM, first compound 0.000316 µM) 81.8% | viability, T/C (second compound 0.316 µM, first compound 0.001 µM) 67.6% | viability, T/C (second compound 0.316 µM, first compound 0.00316 µM) 87.1% | viability, T/C (second compound 0.316 µM, first compound 0.01 µM) 64.5% | viability, T/C (second compound 0.316 µM, first compound 0.0316 µM) 66.4% | viability, T/C (second compound 0.316 µM, first compound 0.1 µM) 61.8% | viability, T/C (second compound 1 µM, first compound 0.000316 µM) 73.8% | viability, T/C (second compound 1 µM, first compound 0.001 µM) 63.2% | viability, T/C (second compound 1 µM, first compound 0.00316 µM) 70.4% | viability, T/C (second compound 1 µM, first compound 0.01 µM) 66.5% | viability, T/C (second compound 1 µM, first compound 0.0316 µM) 69.4% | viability, T/C (second compound 1 µM, first compound 0.1 µM) 59.8% | viability, T/C (second compound 3.16 µM, first compound 0.000316 µM) 60.8% | viability, T/C (second compound 3.16 µM, first compound 0.001 µM) 81.5% | viability, T/C (second compound 3.16 µM, first compound 0.00316 µM) 64.9% | viability, T/C (second compound 3.16 µM, first compound 0.01 µM) 65.8% | viability, T/C (second compound 3.16 µM, first compound 0.0316 µM) 65.4% | viability, T/C (second compound 3.16 µM, first compound 0.1 µM) 54.1% | viability, T/C (second compound 10 µM, first compound 0.000316 µM) 79% | viability, T/C (second compound 10 µM, first compound 0.001 µM) 83.2% | viability, T/C (second compound 10 µM, first compound 0.00316 µM) 69.2% | viability, T/C (second compound 10 µM, first compound 0.01 µM) 69.7% | viability, T/C (second compound 10 µM, first compound 0.0316 µM) 65.9% | viability, T/C (second compound 10 µM, first compound 0.1 µM) 62%

O=C(c1ccc(F)c(F)c1Nc1ccc(I)cc1F)N1CC(O)([C@@H]2CCCCN2)C1 + CCN1C(C(=O)NC23CCC(C(=O)O)(CC2)CC3)C(c2cccc(Cl)c2F)C2(C(=O)Nc3cc(Cl)ccc32)C12CCCCC2
247 nM: IC50 (second compound 0.949 µM)
467 nM: IC50 (second compound 0.03 µM)
139 nM: IC50 (second compound 3 µM)
281 nM: IC50 (second compound 0.3 µM)
inactive: viability, T/C (second compound 0.03 µM, first compound 0.00316 µM) 87.4% | viability, T/C (second compound 0.03 µM, first compound 0.01 µM) 65% | viability, T/C (second compound 0.03 µM, first compound 0.0316 µM) 72.2% | viability, T/C (second compound 0.03 µM, first compound 0.1 µM) 95.9% | viability, T/C (second compound 0.03 µM, first compound 0.316 µM) 65.9% | viability, T/C (second compound 0.03 µM, first compound 1 µM) 18.9% | viability, T/C (second compound 0.0949 µM, first compound 0.00316 µM) 95.4% | viability, T/C (second compound 0.0949 µM, first compound 0.01 µM) 78% | viability, T/C (second compound 0.0949 µM, first compound 0.0316 µM) 87.6% | viability, T/C (second compound 0.0949 µM, first compound 0.1 µM) 84.9% | viability, T/C (second compound 0.0949 µM, first compound 0.316 µM) 50.6% | viability, T/C (second compound 0.0949 µM, first compound 1 µM) 18.7% | viability, T/C (second compound 0.3 µM, first compound 0.00316 µM) 90.9% | viability, T/C (second compound 0.3 µM, first compound 0.01 µM) 76% | viability, T/C (second compound 0.3 µM, first compound 0.0316 µM) 90.9% | viability, T/C (second compound 0.3 µM, first compound 0.1 µM) 91.8% | viability, T/C (second compound 0.3 µM, first compound 0.316 µM) 45.7% | viability, T/C (second compound 0.3 µM, first compound 1 µM) 17.7% | viability, T/C (second compound 0.949 µM, first compound 0.00316 µM) 88.9% | viability, T/C (second compound 0.949 µM, first compound 0.01 µM) 93.6% | viability, T/C (second compound 0.949 µM, first compound 0.0316 µM) 82.2% | viability, T/C (second compound 0.949 µM, first compound 0.1 µM) 81.5% | viability, T/C (second compound 0.949 µM, first compound 0.316 µM) 41.4% | viability, T/C (second compound 0.949 µM, first compound 1 µM) 17.3% | viability, T/C (second compound 3 µM, first compound 0.00316 µM) 77.4% | viability, T/C (second compound 3 µM, first compound 0.01 µM) 82.9% | viability, T/C (second compound 3 µM, first compound 0.0316 µM) 68.3% | viability, T/C (second compound 3 µM, first compound 0.1 µM) 58.6% | viability, T/C (second compound 3 µM, first compound 0.316 µM) 32.1% | viability, T/C (second compound 3 µM, first compound 1 µM) 10.7%
323 nM: IC50 (second compound 0.0949 µM)

Reference: PubChem BioAssay AID1963442 (Molecular Pharmacology Branch, DTP, NCI, 2024)
